Values after ≈ are worked out from the molar mass of the structure shown.
Assays:
[1] = Inhibition of Escherichia coli NAD+-dependent DNA ligase
Staphylococcus aureus = assay: Antibacterial activity against Staphylococcus aureus ATCC 29213; type: functional
DNA ligase 1 = DNA ligase 1 (Homo sapiens, UniProt P18858); assay: Inhibition of human ATP-dependent DNA ligase 1
Escherichia coli [2] = assay: Antibacterial activity against efflux-deficient Escherichia coli 1260 expressing transducant lig251 gene encoding temperature sensitive ligA; type: functional
Escherichia coli [3] = assay: Antibacterial activity against TolC-positive Escherichia coli 1201 expressing lig251 gene; type: functional
Escherichia coli [4] = assay: Antibacterial activity against wild-type TolC-positive Escherichia coli 1410 expressing ligA gene; type: functional
Haemophilus influenzae = assay: Antibacterial activity against Haemophilus influenzae ATCC 51907; type: functional
Streptococcus pneumoniae = assay: Antibacterial activity against Streptococcus pneumoniae ATCC 10015; type: functional

Chain of DNA ligase 1 (P18858 whole entry): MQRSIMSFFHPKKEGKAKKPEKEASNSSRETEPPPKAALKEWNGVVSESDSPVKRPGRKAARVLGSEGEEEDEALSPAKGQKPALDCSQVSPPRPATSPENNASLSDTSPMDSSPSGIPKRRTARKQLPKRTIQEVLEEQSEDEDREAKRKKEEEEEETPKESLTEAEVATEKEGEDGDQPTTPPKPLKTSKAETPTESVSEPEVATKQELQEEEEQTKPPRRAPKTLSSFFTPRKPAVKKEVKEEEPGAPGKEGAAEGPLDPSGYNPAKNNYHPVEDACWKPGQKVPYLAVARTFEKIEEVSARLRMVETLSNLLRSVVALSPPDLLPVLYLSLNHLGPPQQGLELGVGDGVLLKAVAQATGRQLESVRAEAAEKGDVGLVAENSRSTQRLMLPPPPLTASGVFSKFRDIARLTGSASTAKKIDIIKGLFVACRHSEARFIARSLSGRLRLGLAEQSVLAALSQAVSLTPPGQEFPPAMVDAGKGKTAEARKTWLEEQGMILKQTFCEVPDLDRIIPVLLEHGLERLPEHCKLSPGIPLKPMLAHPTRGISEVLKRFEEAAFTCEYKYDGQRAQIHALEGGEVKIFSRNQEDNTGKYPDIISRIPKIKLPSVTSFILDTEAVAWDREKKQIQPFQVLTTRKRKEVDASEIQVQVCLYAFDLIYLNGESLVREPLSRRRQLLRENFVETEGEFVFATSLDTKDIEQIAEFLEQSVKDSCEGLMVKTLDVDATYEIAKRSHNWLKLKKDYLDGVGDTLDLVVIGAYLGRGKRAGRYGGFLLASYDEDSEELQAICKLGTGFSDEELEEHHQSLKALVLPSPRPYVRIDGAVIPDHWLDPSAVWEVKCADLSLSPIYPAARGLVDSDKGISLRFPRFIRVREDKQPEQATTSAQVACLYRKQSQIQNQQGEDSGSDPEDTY

SMILES	IC50 [1] [nM]	MIC (Staphylococcus aureus) [µM]	IC50 (DNA ligase 1) [nM]	MIC (Escherichia coli [2]) [µM]	MIC (Escherichia coli [3]) [µM]	MIC (Escherichia coli [4]) [µM]	MIC (Haemophilus influenzae) [µM]	MIC (Streptococcus pneumoniae) [µM]
CC(C)Oc1ncc(C(N)=O)c(N)n1	410	> 100	> 55000	15 (≈ 2.94 µg/mL)	27 (≈ 5.3 µg/mL)	> 100	–	–
NC(=O)c1cnc(OCCF)nc1N	920	> 100	> 55000	28 (≈ 5.6 µg/mL)	23 (≈ 4.6 µg/mL)	> 100	–	–
NC(=O)c1cnc(NC2CCCC2)nc1N	> 55000	> 100	–	> 100	> 100	> 100	–	–
COCCNc1nc(OCC2CCCC2)ncc1C(N)=O	> 55000	> 100	–	> 100	> 100	> 100	–	–
Nc1nc(OCC2CCCC2)ncc1C(=O)NCCCN1CCCC1=O	> 55000	> 100	–	> 100	> 100	> 100	–	–
N=C(N)c1cnc(OC2CCCC2)nc1N	8100	> 100	–	100 (≈ 22.1 µg/mL)	> 100	> 100	–	–
NC(=O)c1c(N)nc(OC2CCCC2)nc1O[C@H]1CCCC[C@@H]1O	46	45 (≈ 15.1 µg/mL)	> 55000	1.6 (≈ 0.538 µg/mL)	> 100	> 100	–	–
NC(=O)c1c(N)nc(OC2CCCC2)nc1Oc1cccc(CCC(=O)O)c1	78	83 (≈ 32.1 µg/mL)	> 55000	1.2 (≈ 0.464 µg/mL)	> 100	> 100	–	–
COc1cc(NC[C@H]2CCCC(Oc3nc(OC4CCCC4)nc(N)c3C(N)=O)C2)cc(OC)c1 (stereo partly drawn)	80	> 100	> 55000	1.6 (≈ 0.777 µg/mL)	> 100	> 100	–	–
CC(C)Oc1nc(N)c(C(N)=O)c(OC2CCCCC2)n1	61	> 100	> 55000	6.3 (≈ 1.85 µg/mL)	> 100	> 100	–	–
C[C@H]1CC[C@H](Oc2nc(N)c(C(N)=O)c(O[C@H]3CCC[C@@H]3O)n2)CC1	180	100 (≈ 35 µg/mL)	> 55000	1.2 (≈ 0.421 µg/mL)	> 100	> 100	12.5 (≈ 4.38 µg/mL)	75 (≈ 26.3 µg/mL)

More lines, now with the values ahead:

IC50 [1] [nM]	MIC (Staphylococcus aureus) [µM]	IC50 (DNA ligase 1) [nM]	MIC (Escherichia coli [2]) [µM]	MIC (Escherichia coli [3]) [µM]	MIC (Escherichia coli [4]) [µM]	MIC (Haemophilus influenzae) [µM]	MIC (Streptococcus pneumoniae) [µM]	SMILES
610	> 100	> 55000	9.4 (≈ 2.09 µg/mL)	100 (≈ 22.2 µg/mL)	> 100	–	–	NC(=O)c1cnc(OC2CCCC2)nc1N
560	> 100	> 55000	9.8 (≈ 2.32 µg/mL)	> 100	> 100	–	–	NC(=O)c1cnc(OC2CCCCC2)nc1N
240	> 100	> 55000	3.1 (≈ 0.776 µg/mL)	> 100	> 100	–	–	C[C@H]1CCCC[C@H]1Oc1ncc(C(N)=O)c(N)n1
> 10000	> 100	> 55000	> 100	> 100	> 100	–	–	CC(Oc1ncc(C(N)=O)c(N)n1)C(=O)O (stereo not drawn)
6900	> 100	–	33 (≈ 7.86 µg/mL)	> 100	> 100	–	–	NC(=O)c1cnc(SC2CCCC2)nc1N
> 55000	> 100	–	> 100	> 100	> 100	–	–	NC(=O)c1cnc(CCC2CCCC2)nc1N
> 55000	> 100	–	> 100	> 100	> 100	–	–	CNc1nc(OCC2CCCC2)ncc1C(N)=O
> 55000	> 100	–	> 100	> 100	> 100	–	–	Nc1nc(OCC2CCCC2)ncc1C(=O)NCC1CCCO1 (stereo not drawn)
> 40000	> 100	–	> 100	> 100	> 100	–	–	Nc1nc(OC2CCCC2)ncc1S(N)(=O)=O
120	> 100	> 55000	9.4 (≈ 3.03 µg/mL)	> 100	> 100	–	–	NC(=O)c1c(N)nc(OC2CCCC2)nc1O[C@H]1CCC[C@H]1O
19	> 100	> 55000	1.2 (≈ 0.406 µg/mL)	> 100	> 100	–	–	NC(=O)c1c(N)nc(OC2CCCC2)nc1OC1CCCCC1F (stereo not drawn)
64	> 100	> 55000	9.4 (≈ 3.12 µg/mL)	> 100	> 100	–	–	NC(=O)c1c(N)nc(OC2CCCC2)nc1Oc1ccccc1F
14	100 (≈ 35 µg/mL)	> 55000	1.2 (≈ 0.421 µg/mL)	> 100	> 100	–	–	NC(=O)c1c(N)nc(OC2CCCC2)nc1O[C@H]1CCCC[C@@H]1CO
630	> 100	> 55000	4.7 (≈ 1.39 µg/mL)	> 100	> 100	–	–	CC(C)Oc1nc(N)c(C(N)=O)c(O[C@H]2CCC[C@@H]2O)n1
